The values that follow come from PubChem BioAssay AID1329 (NMMLSC, 2008).

Active and inactive are the calls of the source. No rule for the calls is given here.

The target of one assay is Induced myeloid leukemia cell differentiation protein Mcl-1 (Homo sapiens) (UniProt Q07820). The assay can be described thus: Mcl-1/Bim interaction regulators – biochemical, bead-based flow cytometry, multiplexed, human, dose response (AID 1329). As to conditions: Bim peptide-Mcl-1 binding, MCF. A general note: Flow cytometry measures light scatter and fluorescence of single cells or particles in a stream.
Induced myeloid leukemia cell differentiation protein Mcl-1 (Homo sapiens), sequence (Q07820 whole entry, looked up): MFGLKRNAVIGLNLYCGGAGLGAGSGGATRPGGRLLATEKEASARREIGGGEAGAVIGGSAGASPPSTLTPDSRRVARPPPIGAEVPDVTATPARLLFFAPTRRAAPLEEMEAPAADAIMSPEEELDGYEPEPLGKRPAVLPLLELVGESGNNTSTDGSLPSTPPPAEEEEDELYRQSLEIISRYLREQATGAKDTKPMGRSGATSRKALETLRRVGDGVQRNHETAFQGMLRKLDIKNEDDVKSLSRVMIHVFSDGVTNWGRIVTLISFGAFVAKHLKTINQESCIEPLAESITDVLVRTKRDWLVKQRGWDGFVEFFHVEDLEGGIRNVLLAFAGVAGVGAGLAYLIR
For the molecule `COc1cc(/C=N/Nc2nn3cnnc3c3ccccc23)ccc1O`, the EC50 result is “inactive”.

Still in this assay, the particulars now being: Bim peptide-Mcl-1 binding, MCF.
In the case of `O=C(O)CC1S/C(=N/N=C/C=C/c2ccccc2[N+](=O)[O-])NC1=O` (stereo not given), the percent span result was “inactive”.

Turning to `O=C1C=C(Nc2ccccc2)C(=O)c2ccccc21`, the percent span entry is “inactive”.

Take `O=C(c1cnccn1)N1CCN(c2ccccc2F)CC1`: the percent span entry was “inactive”.

As to `O=C1c2ccccc2C(=O)N1CN(C(=O)COc1ccc(Cl)cc1Cl)c1cccc(F)c1`, the percent span result is “inactive”.

As for `COc1ccccc1Oc1ccc2c(c1)C(=O)N(c1cccc3ncccc13)C2=O`, the percent span result is “inactive”.

Take `Nc1ccc(-c2cn3cccnc3n2)cc1`: the percent span entry is “inactive”.

Take `CCOC(=O)c1snc(-c2ccc(F)cc2)c1N`: the percent span entry was “inactive”.

With `Cc1c(N=C2C=CC(=O)c3ccccc32)c(=O)n(-c2ccccc2)n1C`, the percent span entry was “inactive”.

On to `Cc1cc(N2CCN(C)CC2)nc2ccc(NC(=S)N3CCC4(CC3)OCCO4)cc12`, for which the percent span entry was “inactive”.

Regarding `COc1cccc(N2CC(C(=O)Nc3nnc(SCC(=O)c4ccccc4)s3)CC2=O)c1` (stereo not given), the percent span entry is “inactive”.

On to `O=C(COc1ccccc1)Nc1ccc2c(c1)Cc1cc(NC(=O)COc3ccccc3)ccc1-2`, for which the percent span result was “inactive”.

Turning to `CN(CCO)c1cc(Sc2nc3ccccc3s2)c2nonc2c1[N+](=O)[O-]`, the percent span result is “inactive”.

Turning to `CC[n+]1c(/C=C/C=C/N(C(C)=O)c2ccccc2)sc2ccccc21`, the percent span result was “inactive”.

On to `O=C(NCCCO)Nc1ccc2nc(-c3ccco3)c(-c3ccco3)nc2c1`, for which the percent span result was “inactive”.

Regarding `COc1ccc(/C=C(/C(=O)c2cccs2)N2C=CC=CC2=C(C#N)C#N)cc1`, the percent span entry was “inactive”.

Regarding `COc1ccc(CN(CC(=O)NC2CCCC2)C(=O)CCC(=O)Nc2cc(C)on2)cc1`, the percent span entry was “inactive”.

`O=[N+]([O-])c1cccc(S(=O)(=O)NCC2CCCO2)c1` (stereo not given): the percent span entry is “inactive”.

Turning to `COCc1cc(CN2CCCC(CNC(=O)c3ccc(F)cc3)C2)ccc1OC` (stereo not given), the percent span entry was “inactive”.

For `CN(C)c1ccc(C=C2C(=O)NC(=O)NC2=O)cc1[N+](=O)[O-]`, the percent span result was “inactive”.

As for `O=C(CNC(=O)c1ccc(S(=O)(=O)N2CCCC2)cc1)N/N=C/c1ccc(Cl)cc1Cl`, the percent span result is “inactive”.

Consider `COc1ccc(C2=Nn3c(nnc3-c3ccccn3)SC2)cc1OC`, for which the percent span result is “inactive”.

For `O=C(/C=C/c1ccc(-c2ccccc2[N+](=O)[O-])o1)c1ccc(F)cc1`, the percent span result is “inactive”.

Take `COC(=O)/C(=C/c1ccc(F)cc1)NC(C)=O`: the percent span entry was “inactive”.

`COC(=O)CCC(=O)Nc1sc(Cc2ccccc2)c(C)c1C(N)=O`: the percent span result was “inactive”.

As for `Cc1ccc(C)n1-c1ccc(N2CCOCC2)cc1`, the percent span result was “inactive”.

Regarding `Cc1ccc(-c2cc(C(=O)OCC(=O)N(C)C3CCS(=O)(=O)C3)c3ccccc3n2)o1` (stereo not given), the percent span entry is “inactive”.

On to `COc1ccccc1NC(=O)CSc1nnc(-c2ccco2)n1Cc1ccco1`, for which the percent span entry was “inactive”.

Take `CC(=O)N1CCN(C(=O)c2ccc(-n3c(C)ccc3C)cc2)CC1`: the percent span entry was “inactive”.

For the molecule `Cc1cc(C)n(CC(=O)N/N=C/c2cccc([N+](=O)[O-])c2)n1`, the percent span result was “inactive”.

As to `O=[N+]([O-])c1ccc2[nH]nc(-c3ccccc3)c2c1`, the percent span result is “inactive”.

As for `Fc1cccc(Nc2nc(-c3ccncc3)nc3ccccc23)c1`, the percent span result was “inactive”.

Turning to `COC(=O)Cc1cc(=O)[nH]c(Nc2nc3ccccc3o2)n1`, the percent span entry is “inactive”.

For the molecule `O=C(N/N=C/c1cccnc1)c1cccc(S(=O)(=O)N2CCCC2)c1`, the percent span result was “inactive”.

On to `O=C(NCc1ccccc1)C(=O)Nc1nc(C23CC4CC(CC(C4)C2)C3)cs1`, for which the percent span entry was “inactive”.

As for `CCOC(=O)c1c(NC(=O)c2ccccc2N(C)S(=O)(=O)c2ccccc2)sc2c1CCCC2`, the percent span result was “inactive”.

For the molecule `O=C(C1CCC(Cn2c(=S)[nH]c3ccccc3c2=O)CC1)N1CCN(c2ccccn2)CC1` (stereo not given), the percent span entry was “inactive”.

Turning to `C#CCOCCOCCOCCNc1nc(N2CCN(C(=O)[C@H](CCCCN)n3cc(CCCC)nn3)CC2)nc(N2CCN(C(=O)[C@H](Cc3ccc(O)cc3)n3cc(CCO)nn3)CC2)n1`, the percent span entry was “inactive”.

For `Cc1[nH]nc(SCC(=O)NCc2ccc(F)cc2)c1[N+](=O)[O-]`, the percent span entry is “inactive”.

For `O=C(CCl)Nc1cccc2ncccc12`, the percent span result is “inactive”.

Take `CNC(=O)/C(C#N)=C/c1c(N(Cc2ccccc2)Cc2ccccc2)nc2c(C)cccn2c1=O`: the percent span entry was “inactive”.

For `CC(=O)OCCCNc1cc(Sc2nc3ccccc3s2)c2nonc2c1[N+](=O)[O-]`, the percent span result was “inactive”.

On to `COc1ccc(Cl)cc1-n1c(C)cc(C=O)c1C`, for which the percent span entry was “inactive”.

Consider `Cc1ccc(/C=C/C(=O)Nc2ccc([N+](=O)[O-])c(NC(=O)/C=C/c3ccc(C)o3)c2)o1`, for which the percent span result is “inactive”.

`CCOc1cc(S(=O)(=O)N2CCCCC2)ccc1F`: the percent span entry was “inactive”.

As for `O=C(O)c1ccc(NC2=C/C(=N/S(=O)(=O)c3ccccc3)c3ccccc3C2=O)cc1`, the percent span entry was “inactive”.

Take `COc1cccc(/C=N/NC(=O)c2cc3cc([N+](=O)[O-])ccc3s2)c1O`: the percent span entry was “inactive”.

As to `CN=c1scc(C)n1/N=C/c1ccc(O)c(O)c1O`, the percent span entry is “inactive”.

Turning to `CC1(C)SC(=S)N(NC(=O)Nc2ccccc2)C1N(O)C(=O)Nc1cccc2ccccc12` (stereo not given), the percent span entry was “inactive”.

`CN(Cc1cccs1)C(=O)CCc1c[nH]c2ccccc12`: the percent span entry was “inactive”.

In the case of `Clc1ccc(N=c2ssnc2Cl)nc1`, the percent span result was “inactive”.

As to `COC(=O)c1sc2nc[nH]c(=O)c2c1C`, the percent span result is “inactive”.

In the case of `COc1ccccc1-n1c(-c2ccc(Cl)cc2)c[nH]c1=S`, the percent span entry is “inactive”.

With `COC(=O)c1ccc(/C=N/NC(=O)CC(=O)NCc2cccnc2)cc1`, the percent span entry was “inactive”.

Take `Cc1cc(NC(=O)CSc2nnc(-c3cccnc3)n2Cc2ccccc2)no1`: the percent span entry was “inactive”.

For `Cc1cc(C)c2c(N)c3cccc(C)c3nc2n1`, the percent span entry is “inactive”.

On to `Cn1c(CCNC(=O)C2CCCCC2)nc2cc(NC(=O)c3cccs3)ccc21`, for which the percent span result is “inactive”.

With `COC(=O)CSc1ncnc2c1sc1nc(-c3ccco3)c3c(c12)CC(C)(C)OC3`, the percent span entry was “inactive”.

With `CCOC(=O)/C(=C\c1cccc(O)c1)c1nc2sc(C)c(C)c2c(=O)[nH]1`, the percent span result was “inactive”.

Consider `CCOc1cccc(CNc2ccc(O)cc2)c1OCc1ccc(Cl)cc1`, for which the percent span entry was “inactive”.

For the molecule `COc1ccc(C(=S)N2CCCCCC2)cc1`, the percent span result was “inactive”.

For `Cc1ccc(-c2nc3c(c(=O)[nH]c(=O)n3Cc3ccccc3)n2C)o1`, the percent span result is “inactive”.

Turning to `CCOc1cc(C2Nc3cccc4cccc(c34)N2)ccc1O`, the percent span result is “inactive”.

`CC(C)(C)c1nc(NCCN2CCOCC2)c2nnn(Cc3ccccc3Cl)c2n1`: the percent span entry was “inactive”.

Consider `COC(=O)c1c(C(=O)OC)c2cccc3cc(-c4ccccc4)c4ccc1c4n32`, for which the percent span result is “inactive”.

In the case of `Cc1ccc(OCc2cn3cccnc3n2)cc1`, the percent span entry was “inactive”.

With `CC1Nc2ccccc2C(=O)N1NS(=O)(=O)c1ccccc1` (stereo not given), the percent span result is “inactive”.

`COc1cc(/C=C2\S/C(=N/S(=O)(=O)c3ccc(C)cc3)NC2=O)c([N+](=O)[O-])cc1OC`: the percent span entry is “inactive”.

Turning to `Cc1onc(-c2ccccc2)c1C(=O)Nc1nnc(COc2ccc(Cl)cc2)s1`, the percent span result was “inactive”.

For `COc1ccc2c3c(cccc13)N(C)N=C2C`, the percent span result is “inactive”.

In the case of `CCn1cc(C=C2C(=O)c3ccccc3C2=O)c2ccccc21`, the percent span entry was “inactive”.

With `Cc1ccc(C)c(NC(=O)C(=O)NCc2ccccn2)c1`, the percent span result is “inactive”.

In the case of `Cc1ccc(NS(=O)(=O)c2cc(NC(=O)c3ccc4c(c3)NC(=O)CS4)ccc2C)c(C)c1`, the percent span result was “inactive”.

Take `CC(C)n1nnnc1SCC(=O)N1CCN(C(=O)c2ccco2)CC1`: the percent span result was “inactive”.

Consider `CCN(CC)c1ccc(-c2nn3c(-c4n[nH]c5c4CCC5)nnc3s2)cc1`, for which the percent span result was “inactive”.

On to `CCNCc1cc(Br)c(OCC(=O)Nc2ccccc2)c(OC)c1`, for which the percent span entry was “inactive”.

Consider `Clc1ccc2c(N/N=C/c3ccc(Br)cc3)ccnc2c1`, for which the percent span result is “inactive”.

For `NC(=O)c1sc2nc3c(c(-c4ccco4)c2c1N)CCC3`, the percent span result was “inactive”.

Consider `Cc1[nH]n(C(N)=S)c(=O)c1N=Nc1ccc(S(=O)(=O)N2CCCCCC2)cc1`, for which the percent span entry was “inactive”.

For `CCOC(=O)c1sc(N)c(C(=O)Nc2ccccc2OC)c1C`, the percent span result is “inactive”.

`c1ccc(Nc2nc(-c3ccncc3)cs2)cc1`: the percent span entry is “inactive”.

Consider `Cc1ccc(C)n1-c1cccc(C(=O)O)c1`, for which the percent span entry is “inactive”.

As for `O=S1(=O)N=C(N(CCO)/N=C/c2ccncc2)c2ccccc21`, the percent span entry was “inactive”.

Regarding `O=C(CSc1ccc(-c2ccccc2)nn1)NCc1ccco1`, the percent span result was “inactive”.

On to `O=C(CSc1nc2ccsc2c(=O)n1Cc1ccc(C(=O)O)cc1)NCC1CCCO1` (stereo not given), for which the percent span entry is “inactive”.

Consider `O=C(COCC(=O)NCc1ccccc1)NCc1ccccc1`, for which the percent span result is “inactive”.

For the molecule `CCc1nnc(NC(=O)CSc2nnc(COc3ccc(C)cc3)n2-c2ccccc2)s1`, the percent span result is “inactive”.

Take `COc1ccc(OC)c(NC(=O)COC(=O)c2cc3c(s2)CCC3)c1`: the percent span result is “inactive”.

For the molecule `CS(=O)(=O)NN1C(=O)c2ccccc2NC1c1cccc2cccnc12` (stereo not given), the percent span entry is “inactive”.

For the molecule `CCNC(=S)Nc1ccc(OCC)cc1`, the percent span result was “inactive”.
